By EC50 is commonly meant the midpoint of the concentration-response curve.

This is an account of results in patent US12678386B2, “Organic compounds as TRPM8 activators” (Givaudan SA, priority 2021, dated 2026).

For the experiment, the target named is T1, hTRPM8 (Homo sapiens, UniProt Q7Z2W7).
T1 construct: expressed in transfected cells
T1 sequence (Q7Z2W7 whole entry): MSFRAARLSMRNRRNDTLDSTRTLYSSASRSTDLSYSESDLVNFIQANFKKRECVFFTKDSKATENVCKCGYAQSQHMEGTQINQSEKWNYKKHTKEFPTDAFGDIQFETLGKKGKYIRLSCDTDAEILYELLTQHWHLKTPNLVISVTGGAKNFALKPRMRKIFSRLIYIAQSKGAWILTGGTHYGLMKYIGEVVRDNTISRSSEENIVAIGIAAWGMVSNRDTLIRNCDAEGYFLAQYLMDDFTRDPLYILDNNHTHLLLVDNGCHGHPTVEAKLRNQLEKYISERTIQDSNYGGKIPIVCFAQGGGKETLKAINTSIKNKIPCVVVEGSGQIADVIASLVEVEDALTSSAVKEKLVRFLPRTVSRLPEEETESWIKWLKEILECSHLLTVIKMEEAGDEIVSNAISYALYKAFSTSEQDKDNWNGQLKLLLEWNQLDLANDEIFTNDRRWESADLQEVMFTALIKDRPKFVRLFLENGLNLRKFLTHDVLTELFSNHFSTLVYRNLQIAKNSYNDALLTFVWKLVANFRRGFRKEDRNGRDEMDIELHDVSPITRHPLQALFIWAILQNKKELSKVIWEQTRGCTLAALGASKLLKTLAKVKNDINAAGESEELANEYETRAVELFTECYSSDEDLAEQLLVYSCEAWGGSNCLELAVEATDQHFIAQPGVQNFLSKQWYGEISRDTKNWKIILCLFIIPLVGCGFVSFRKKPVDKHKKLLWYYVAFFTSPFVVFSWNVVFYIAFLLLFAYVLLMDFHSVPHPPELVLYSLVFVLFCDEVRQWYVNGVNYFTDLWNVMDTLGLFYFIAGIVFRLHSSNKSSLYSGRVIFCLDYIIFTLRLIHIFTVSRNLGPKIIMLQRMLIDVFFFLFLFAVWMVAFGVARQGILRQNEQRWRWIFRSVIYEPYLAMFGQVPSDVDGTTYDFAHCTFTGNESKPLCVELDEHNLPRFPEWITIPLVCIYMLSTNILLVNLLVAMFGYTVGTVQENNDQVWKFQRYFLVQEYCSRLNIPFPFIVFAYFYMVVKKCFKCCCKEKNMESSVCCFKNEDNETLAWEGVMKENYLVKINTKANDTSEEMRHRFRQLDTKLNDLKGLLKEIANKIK
The experiment can be described thus: Assay on TRPM8 modulators: calcium imaging (Fluo-4, Flexstation) in HEK293 cell line stably expressing hTRPM8. It counts as cell-based. The settings on record: HEK293 cells stably expressing hTRPM8; calcium influx, sigmoidal dose-response fit. The procedure:
A HEK293 cell line stably expressing hTRPM8 was generated according to Klein et al., (Chem. Senses 36: 649-658, 2011) and receptor activation was monitored by calcium imaging in a Flexstation. For Ca-imaging assays of TRPM8 channel activation, cells were seeded on day 0 at a density of 12000 cells per well in Dulbecco's modified Eagle medium (DMEM) containing 9% foetal bovine serum in black, clear bottom 96-well plates that had been coated with 0.001% polyethyleneimine (molecular weight=60 000, Acros Organics). On day 2, agonists were evaluated via calcium imaging using Fluo-4. Briefly, growth medium was discarded, and the cells were incubated in the dark for 1 h at 37° C. in 50 μL loading buffer consisting of 2.7 μM Fluo-4 AM (Invitrogen) and […] probenecid (Sigma-Aldrich) in DMEM (without serum). After incubation, the plates were washed five times with 100 μL of assay buffer (in mM: 130 NaCl, 5 KCl, 10 HEPES, 2 CaCl2, and 10 glucose, pH7.4.) and further incubated in the dark at room temperature for 30 min. The cells were then washed five times with 100 μL assay buffer and then calcium influx to serial dilutions of inventive compounds were measured in a Flexstation 3 (Molecular Devices). Receptor activation was initiated following addition of 20 μl of a 10-fold concentrated ligand stock solution, which is also prepared in assay buffer. Fluorescence was continuously monitored for 15 seconds prior to ligand addition and for 105 seconds after ligand addition, for a total of 120 seconds. Maximal receptor activation in relation to solvent control and relative to 31.6 μM menthol is determined. Data from serial dilutions were processed with a KNIME workflow to fit a sigmoidal dose-response curve and to extrapolate EC50 values.
`CCC(C)C(=O)N1CCCCC1c1nc(-c2ccc(C)cc2)cn1C(C)=O` (stereo not shown) [1-(2-(1-acetyl-4-(p-tolyl)-1H-imidazol-2-yl)piperidin-1-yl)-2-methylbutan-1-one]: the EC50 was under 50 nM. On to `CCCCCCCCCCCC(=O)n1cc(-c2ccc(C)cc2)nc1C1CCCCN1C(=O)C(C)CC` (stereo not shown) [1-(2-(1-(2-methylbutanoyl)piperidin-2-yl)-4-(p-tolyl)-1H-imidazol-1-yl)dodecan-1-one], for which the EC50 lay in the range of 300 to 1000 nM.

Take `Cc1ccc(OCC(=O)N(Cc2cccs2)c2ccn(C(=O)C(C)C)n2)cc1` [N-(1-isobutyryl-1H-pyrazol-3-yl)-N-(thiophen-2-ylmethyl)-2-(p-tolyloxy)acetamide]: the EC50 is under 50 nM.

For `Cc1ccc(-c2cn(C(=O)C(C)C)c(C3CCCCN3C(=O)C(C)C)n2)cc1` (stereo not shown) [1-(2-(1-isobutyryl-4-(p-tolyl)-1H-imidazol-2-yl)piperidin-1-yl)-2-methylpropan-1-one], the half-maximal effective concentration (EC50) is 50 to 300 nM. Regarding `CCC(C)C(=O)N1CCCCC1c1nc(-c2ccc(C)cc2)cn1C(=O)COC` (stereo not shown) [1-(2-(1-(2-methoxyacetyl)-4-(p-tolyl)-1H-imidazol-2-yl)piperidin-1-yl)-2-methylbutan-1-one], the EC50 is under 50 nM.

As for `Cc1ccc(OCC(=O)N(Cc2cccs2)c2ccn(C(=O)c3ccccc3)n2)cc1` [N-(1-benzoyl-1H-pyrazol-3-yl)-N-(thiophen-2-ylmethyl)-2-(p-tolyloxy)acetamide], the EC50 is under 50 nM. Take `CSC(C)C(=O)N1CCCCC1c1nc(-c2ccc(C)cc2)cn1C(=O)C(C)SC` (stereo not shown) [2-(methylthio)-1-(2-(1-(2-(methylthio)propanoyl)-4-(p-tolyl)-1H-imidazol-2-yl)piperidin-1-yl)propan-1-one]: the EC50 was under 50 nM. As for `CCCCCC(=O)n1cc(-c2ccc(C)cc2)nc1C1CCCCN1C(=O)C(C)CC` (stereo not shown) [1-(2-(1-(2-methylbutanoyl)piperidin-2-yl)-4-(p-tolyl)-1H-imidazol-1-yl)hexan-1-one], the EC50 was under 50 nM. As to `CCCCCCCCCCCC(=O)n1cc(-c2ccc(C)cc2)nc1C1CCCCN1C(=O)C(C)SC` (stereo not shown) [1-(2-(1-(2-(methylthio)propanoyl)piperidin-2-yl)-4-(p-tolyl)-1H-imidazol-1-yl)dodecan-1-one], the concentration giving a half-maximal response (EC50) fell in the range of 50 to 300 nM.

Turning to `CSC(C)C(=O)N1CCCCC1c1nc(-c2ccc(C)cc2)cn1C(=O)C(C)C` (stereo not shown) [1-(2-(1-isobutyryl-4-(p-tolyl)-1H-imidazol-2-yl)piperidin-1-yl)-2-(methylthio)propan-1-one], the EC50 is under 50 nM.

As for `CSC(C)C(=O)N1CCCCC1c1nc(-c2ccc(C)cc2)cn1C(=O)c1ccccc1` (stereo not shown) [1-(2-(1-benzoyl-4-(p-tolyl)-1 H-imidazol-2-yl)piperidin-1-yl)-2-(methylthio)propan-1-one], the EC50 is under 50 nM. For `CCC(=O)N1CCCCC1c1nc(-c2ccc(C)cc2)cn1C(=O)CC` (stereo not shown) [1-(2-(1-propionyl-4-(p-tolyl)-1 H-imidazol-2-yl)piperidin-1-yl)propan-1-one], the concentration giving a half-maximal response (EC50) lay within 1000 to 35000 nM. In the case of `CC(=O)n1ccc(N(Cc2cccs2)C(=O)COc2ccc(C)cc2)n1` [N-(1-acetyl-1H-pyrazol-3-yl)-N-(thiophen-2-ylmethyl)-2-(p-tolyloxy)acetamide], the EC50 was under 50 nM.

As to `CCC(C)C(=O)N1CCCCC1c1nc(-c2ccc(C)cc2)cn1C(=O)C(C)C` (stereo not shown) [1-(2-(1-isobutyryl-4-(p-tolyl)-1 H-imidazol-2-yl)piperidin-1-yl)-2-methylbutan-1-one], the EC50 lay in the range of 50 to 300 nM. Consider `CSC(C)C(=O)N1CCCCC1c1nc(-c2ccc(C)cc2)cn1C(C)=O` (stereo not shown) [1-(2-(1-acetyl-4-(p-tolyl)-1 H-imidazol-2-yl)piperidin-1-yl)-2-(methylthio)propan-1-one], for which the concentration giving a half-maximal response (EC50) lay within 50 to 300 nM. Then `CCC(C)C(=O)N1CCCCC1c1nc(-c2ccc(C)cc2)cn1C(=O)COCc1ccccc1` (stereo not shown) [1-(2-(1-(2-(benzyloxy)acetyl)-4-(p-tolyl)-1H-imidazol-2-yl)piperidin-1-yl)-2-methylbutan-1-one], with under 50 nM; and `CCCCCC(=O)n1cc(-c2ccc(C)cc2)nc1C1CCCCN1C(=O)C(C)SC` (stereo not shown) [1-(2-(1-(2-(methylthio)propanoyl)piperidin-2-yl)-4-(p-tolyl)-1H-imidazol-1-yl)hexan-1-one], with 50 to 300 nM; and `CCC(C)C(=O)N1CCCCC1c1nc(-c2ccc(C)cc2)cn1C(=O)[C@@H]1C[C@H](C)CC[C@H]1C(C)C` (stereo partly drawn) [1-(2-(1-((1R,2S,5R)-2-isopropyl-5-methylcyclohexane-1-carbonyl)-4-(p-tolyl)-1H-imidazol-2-yl)piperidin-1-yl)-2-methylbutan-1-one], with 1000 to 35000 nM.

In the case of `CSC(C)C(=O)N1CCCCC1c1nc(-c2ccc(C)cc2)cn1C(=O)[C@@H]1C[C@H](C)CC[C@H]1C(C)C` (stereo partly drawn) [1-(2-(1-((1R,2S,5R)-2-isopropyl-5-methylcyclohexane-1-carbonyl)-4-(p-tolyl)-1H-imidazol-2-yl)piperidin-1-yl)-2-(methylthio)propan-1-one], the EC50 lay in the range of 300 to 1000 nM.
